Data as given in ChEMBL document CHEMBL2016443, “From ApoA1 upregulation to BET family bromodomain inhibition: discovery of I-BET151” (Bioorg Med Chem Lett, 2012).
Calls of active or inactive are those of the source. The calls are words filed in the database; no cut-off is given here.

What was measured:
[1] = tested on: HepG2; test: Upregulation of ApoA1 expression in human HepG2 cells assessed as concentration required to increase 70% of luciferase activity after 18 hrs by luciferase reporter gene assay; assay type: functional
[2] = tested on: PBMC; test: Inhibition of LPS-stimulated IL-6 production in human PBMC; assay type: functional, cell-based
[3] = tested on: PBMC; test: Inhibition of LPS-stimulated TNFalpha production in human PBMC; assay type: functional, cell-based
[4] = tested on: THP-1; test: Antiinflammatory activity in human THP1 cells; assay type: functional, cell-based
[5] = target: Cytochrome P450 3A4 (Homo sapiens, UniProt P08684); test: Inhibition of CYP3A4; assay type: ADME
Cytochrome P450 3A4, sequence (P08684 whole entry): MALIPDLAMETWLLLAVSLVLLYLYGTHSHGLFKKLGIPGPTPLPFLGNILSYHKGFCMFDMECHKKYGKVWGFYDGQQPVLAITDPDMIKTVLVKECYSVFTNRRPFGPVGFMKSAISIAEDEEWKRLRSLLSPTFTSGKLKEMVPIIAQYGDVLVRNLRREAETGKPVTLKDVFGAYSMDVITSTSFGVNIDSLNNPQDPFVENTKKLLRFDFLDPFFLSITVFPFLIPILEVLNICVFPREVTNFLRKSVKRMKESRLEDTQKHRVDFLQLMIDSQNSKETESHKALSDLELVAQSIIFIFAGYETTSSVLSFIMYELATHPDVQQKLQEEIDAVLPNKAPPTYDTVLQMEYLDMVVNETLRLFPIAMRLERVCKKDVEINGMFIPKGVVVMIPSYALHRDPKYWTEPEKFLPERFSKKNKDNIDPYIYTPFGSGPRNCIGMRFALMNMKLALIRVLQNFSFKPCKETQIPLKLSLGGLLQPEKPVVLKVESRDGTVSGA

[6] = target: Cytochrome P450 2C9 (Homo sapiens, UniProt P11712); test: Inhibition of CYP2C9; assay type: ADME
Cytochrome P450 2C9, sequence (P11712 whole entry): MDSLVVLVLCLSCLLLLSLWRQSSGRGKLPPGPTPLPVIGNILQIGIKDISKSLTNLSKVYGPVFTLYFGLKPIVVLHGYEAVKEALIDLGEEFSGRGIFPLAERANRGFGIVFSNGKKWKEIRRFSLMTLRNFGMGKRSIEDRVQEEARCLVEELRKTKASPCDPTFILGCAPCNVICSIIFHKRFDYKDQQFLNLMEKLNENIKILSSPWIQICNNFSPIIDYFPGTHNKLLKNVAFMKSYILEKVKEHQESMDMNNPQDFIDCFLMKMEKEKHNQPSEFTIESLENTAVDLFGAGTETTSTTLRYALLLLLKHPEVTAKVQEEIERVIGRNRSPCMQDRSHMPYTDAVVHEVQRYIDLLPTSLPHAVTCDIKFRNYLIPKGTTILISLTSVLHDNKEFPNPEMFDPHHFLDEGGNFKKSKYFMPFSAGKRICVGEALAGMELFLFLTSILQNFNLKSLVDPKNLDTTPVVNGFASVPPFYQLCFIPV

[7] = Half life in CD rat; assay type: ADME, organism-based; conditions: CD, in vivo
[8] = tested on: Hepatocyte; test: Bioactivation in human hepatocytes assessed as glutathione trapping; assay type: cell-based
[9] = Oral bioavailability in CD rat; assay type: ADME, organism-based; conditions: in vivo
[10] = tested on: Hepatocyte; test: Bioactivation in rat hepatocytes assessed as compound epoxidation; assay type: cell-based
[11] = tested on: Hepatocyte; test: Bioactivation in human hepatocytes assessed as compound epoxidation; assay type: cell-based
[12] = organism: Rattus norvegicus; test: Dose normalized AUC (0 to infinity ) in CD rat; assay type: ADME, organism-based; conditions: in vivo
[13] = Volume of distribution at steady state in CD rat; assay type: ADME, organism-based; conditions: in vivo, read-out: Vdss
[14] = tested on: Salmonella typhimurium; test: Mutagenic activity in Salmonella typhimurium by Ames assay; assay type: toxicity, organism-based; conditions: salmonella enterica subsp. enterica serovar typhimurium
[15] = tested on: Hepatocyte; test: Bioactivation in rat hepatocytes assessed as glutathione trapping; assay type: cell-based
[16] = Clearance in iv dosed CD rat blood after 1 hr; assay type: ADME, organism-based; conditions: whole blood
[17] = tested on: Mus musculus; test: Antiinflammatory activity in LPS-stimulated acute inflammation BALB/c mouse model assessed as inhibition of plasma TNF-alpha level at 10 mg/kg, po administered 2 hrs before LPS challenge; assay type: functional
[18] = tested on: Mus musculus; test: Antiinflammatory activity in LPS-stimulated acute inflammation BALB/c mouse model assessed as inhibition of plasma PAI-1 level at 10 mg/kg, po administered 2 hrs before LPS challenge; assay type: functional
[19] = tested on: Mus musculus; test: Antiinflammatory activity in LPS-stimulated acute inflammation BALB/c mouse model assessed as inhibition of plasma IL-6 level at 10 mg/kg, po administered 2 hrs before LPS challenge; assay type: functional
[20] = tested on: Mus musculus; test: Antiinflammatory activity in LPS-stimulated acute inflammation BALB/c mouse model assessed as inhibition of plasma MCP-1 level at 10 mg/kg, po administered 2 hrs before LPS challenge; assay type: functional

Row | IC50 [5] | IC50 [6] | Structure (SMILES) | EC170 [1] | Activity [2] | Activity [3] | Activity [4] | also measured
1 | – | – | Cc1noc(C)c1-c1ccc2c(Nc3ccccc3)c(C(=O)NCc3ccccc3)cnc2c1 | 1.44 µM | Active | Active | Active | –
2 | 3.1 µM | 9.9 µM | COc1cc2c(Nc3ccccc3C(=O)c3ccccn3)c(C(N)=O)cnc2cc1-c1c(C)noc1C | 0.2 µM | Active | Active | Active | –
3 | – | – | Cc1noc(C)c1-c1ccc2c(Nc3ccccc3C(C)(C)C)c(C(=O)O)cnc2c1C | 1.05 µM | Active | Active | Active | –
4 | 12.9 µM | – | COc1cc2c(cc1-c1c(C)noc1C)ncc1[nH]c(=O)n(Cc3ccccn3)c12 | – | Active | Active | Active | –
5 | 1.5 µM | 5.1 µM | COc1cc2c(Nc3ccccc3N3CCOCC3)c(C(N)=O)cnc2cc1-c1c(C)noc1C | 0.09 µM | Active | Active | Active | –
6 | 1.5 µM | 1 µM | COc1cc2c(cc1-c1c(C)noc1C)ncc1[nH]c(=O)n([C@H](C)c3ccccc3)c12 | 0.01 µM | Active | Active | Active | –
7 | 2.4 µM | 2.4 µM | CC[C@H](c1ccccc1)n1c(=O)[nH]c2cnc3cc(-c4c(C)noc4C)c(OC)cc3c21 | 0.03 µM | Active | Active | Active | –
8 | – | – | Cc1noc(C)c1-c1ccc2c(Nc3ccccc3)c(C(=O)N(C)C)cnc2c1 | 7.08 µM | Active | Active | Active | –
9 | 4.7 µM | 0.6 µM | COc1cc2c(Nc3ccccc3F)c(C(N)=O)cnc2cc1-c1c(C)noc1C | 0.3 µM | Active | Active | Active | –
10 | 1.9 µM | 1.2 µM | COc1cc2c(Nc3ccccc3C(C)(C)C)c(C(N)=O)cnc2cc1-c1c(C)noc1C | 0.13 µM | Active | Active | Active | –
11 | 1.8 µM | 8.5 µM | COc1cc2c(Nc3ccccc3C(=O)N3CCCCC3)c(C(N)=O)cnc2cc1-c1c(C)noc1C | 0.13 µM | Active | Active | Active | –
12 | – | – | Cc1cccc(Nc2c(C(N)=O)cnc3cc(-c4c(C)noc4C)ccc23)c1 | 0.6 µM | Active | Active | Active | –
13 | – | – | COc1cc2c(NCc3ccccc3)c(C(N)=O)cnc2cc1-c1c(C)noc1C | 1.07 µM | Active | Active | Active | –
14 | – | – | Cc1noc(C)c1-c1ccc2c(Nc3ccccc3Cl)c(C(N)=O)cnc2c1 | 1 µM | Active | Active | Active | –
15 | 1.7 µM | 0.9 µM | COc1cc2c(cc1-c1c(C)noc1C)ncc1[nH]c(=O)n(-c3ccccc3C(C)(C)C)c12 | 0.05 µM | Active | Active | Active | –
16 | – | – | Cc1noc(C)c1-c1ccc2c(Nc3ccccc3C#N)c(C(N)=O)cnc2c1 | 1.02 µM | Active | Active | Active | –
17 | – | – | COc1cc2c(NCc3ccccn3)c(C(N)=O)cnc2cc1-c1c(C)noc1C | 2.57 µM | Active | Active | Active | –
18 | – | – | Cc1noc(C)c1-c1ccc2c(Nc3ccccc3F)c(C(N)=O)cnc2c1 | 0.5 µM | Active | Active | Active | –
19 | 2 µM | 1.3 µM | COc1cc2c(cc1-c1c(C)noc1C)ncc1[nH]c(=O)n(C(C)c3ccccc3)c12 (racemic) | 0.03 µM | Active | Active | Active | –

Row | IC50 [5] | IC50 [6] | Structure (SMILES) | EC170 [1] | Activity [2] | Activity [3] | Activity [4] | also measured
20 | – | – | Cc1ccc(Nc2c(C(N)=O)cnc3cc(-c4c(C)noc4C)ccc23)cc1 | 1.05 µM | Active | Active | Active | –
21 | – | – | Cc1noc(C)c1-c1ccc2c(Nc3ccccc3)ccnc2c1 | 4.27 µM | Active | Active | Active | –
22 | > 33 µM | > 33 µM | Cc1noc(C)c1-c1ccc2c(Nc3ccccc3)c(C(=O)O)cnc2c1 | 1.74 µM | Active | Active | Active | –
23 | – | 1.2 µM | COc1cc2c(cc1-c1c(C)noc1C)ncc1[nH]c(=O)n(Cc3ccccc3)c12 | 0.06 µM | Active | Active | Active | –
24 | 17 µM | 2.1 µM | Cc1noc(C)c1-c1ccc2c(Nc3ccccc3)c(C(N)=O)cnc2c1 | 0.5 µM | Active | Active | Active | –
25 | 1.9 µM | 2.2 µM | COc1cc2c(Nc3ccccc3CCN3CCOCC3)c(C(N)=O)cnc2cc1-c1c(C)noc1C | 0.09 µM | Active | Active | Active | –
26 | 3.9 µM | 2.8 µM | COc1cc2c(Nc3cccc4cccnc34)c(C(N)=O)cnc2cc1-c1c(C)noc1C | 0.22 µM | Active | Active | Active | half-life [7]: 1.1 h; Drug metabolism [8]: Active; bioavailability [9]: 59%; Drug metabolism [10]: Active; Drug metabolism [11]: Active; AUC/dose [12]: 12 kg·min/L; Vd [13]: 4 L/kg; Activity [14]: Toxic; Drug metabolism [15]: Active; clearance [16]: 3 L/h/kg
27 | – | – | Cc1ccccc1Nc1c(C(N)=O)cnc2cc(-c3c(C)noc3C)ccc12 | 0.44 µM | Active | Active | Active | –
28 | – | – | COc1cc2c(Nc3ccccc3C(C)(C)C)c(C(=O)O)cnc2cc1-c1c(C)noc1C | 0.28 µM | Active | Active | Active | –
29 | – | 2.3 µM | COc1cc2c(cc1-c1c(C)noc1C)ncc1[nH]c(=O)n(-c3ccccc3OC(F)(F)F)c12 | 0.09 µM | Active | Active | Active | –
30 | – | – | COc1cc2c(cc1-c1c(C)noc1C)ncc1[nH]c(=O)n(-c3ccccc3F)c12 | 0.76 µM | Active | Active | Active | –
31 | – | – | CCNC(=O)C[C@@H]1N=C(c2ccc(Cl)cc2)c2cc(OC)ccc2-n2c(C)nnc21 [MOLIBRESIB] | 0.2 µM | – | – | – | –
32 | – | – | COc1cc2c(NC3CCCCC3)c(C(N)=O)cnc2cc1-c1c(C)noc1C | 0.45 µM | Active | Active | Active | –
33 | – | – | COc1cc2c(cc1-c1c(C)noc1C)ncc1[nH]c(=O)n([C@@H](C)c3ccccc3)c12 | 0.47 µM | Active | Active | Active | –
34 | 13 µM | 10 µM | Cc1noc(C)c1-c1ccc2c(Nc3ccccc3C(C)(C)C)c(C(=O)O)cnc2c1 | 0.32 µM | Active | Active | Active | –
35 | – | – | COc1ccccc1Nc1c(C(N)=O)cnc2cc(-c3c(C)noc3C)ccc12 | 0.39 µM | Active | Active | Active | –
36 | 2 µM | 0.7 µM | Cc1noc(C)c1-c1ccc2c(Nc3ccccc3C(C)(C)C)c(C(N)=O)cnc2c1 | 0.63 µM | Active | Active | Active | –
37 | – | – | Cc1cc2c(Nc3ccccc3C(C)(C)C)c(C(=O)O)cnc2cc1-c1c(C)noc1C | 1.99 µM | Active | Active | Active | –
38 | – | – | C[C@]12C=CC(=O)C=C1CC[C@@H]1[C@@H]2[C@@H](O)C[C@@]2(C)[C@H]1CC[C@]2(O)C(=O)CO [PREDNISOLONE] | – | – | – | – | inhibition in vivo at 10 mg/kg [17]: 94%; inhibition in vivo at 10 mg/kg [18]: 43%; inhibition in vivo at 10 mg/kg [19]: 59%; inhibition in vivo at 10 mg/kg [20]: 49%
